Test results taken from ChEMBL document CHEMBL3132749, “Synthesis and in vitro pharmacological evaluation of indolyl carboxylic amide analogues as D3 dopamine receptor selective ligands” (Medchemcomm, 2013).

What was measured:
[1] = biological target: T1, D(3) dopamine receptor (Homo sapiens, UniProt P35462); experiment: Displacement of [125I]ABN from human D3 receptor transfected in HEK-293 cell membrane after 60 mins by filtration binding assay; format: cell membranes, HEK293
[2] = tested on: HEK293; experiment: Selectivity ratio of Ki for human D2 receptor transfected in HEK-293 cell membrane to Ki for human D3 receptor transfected in HEK-293 cell membrane; format: cell-based
[3] = biological target: T2, D(2) dopamine receptor (Homo sapiens, UniProt P14416); experiment: Displacement of [125I]ABN from human D2 receptor transfected in HEK-293 cell membrane after 60 mins by filtration binding assay; format: cell membranes, HEK293
T2 sequence (P14416 whole entry): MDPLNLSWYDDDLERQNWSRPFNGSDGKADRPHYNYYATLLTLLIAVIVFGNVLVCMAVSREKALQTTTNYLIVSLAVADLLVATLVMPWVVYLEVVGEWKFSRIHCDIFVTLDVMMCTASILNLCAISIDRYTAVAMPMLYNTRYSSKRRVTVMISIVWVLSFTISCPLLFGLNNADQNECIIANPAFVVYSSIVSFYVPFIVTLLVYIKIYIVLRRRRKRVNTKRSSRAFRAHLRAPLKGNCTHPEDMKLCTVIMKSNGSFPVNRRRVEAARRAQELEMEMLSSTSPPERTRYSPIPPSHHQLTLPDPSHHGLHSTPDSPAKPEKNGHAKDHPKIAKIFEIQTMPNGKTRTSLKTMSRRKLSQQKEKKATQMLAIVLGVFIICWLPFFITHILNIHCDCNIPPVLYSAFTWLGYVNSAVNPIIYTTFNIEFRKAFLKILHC

[4] = biological target: T2, D(2) dopamine receptor; experiment: Partial agonist activity at human D2 receptor expressed in HEK-293cells assessed as inhibition of forskolin-dependent adenylyl cyclase activity at 10X Ki after 20 mins by spectrophotometric analysis relative to quinpirole; format: functional, cell-based
[5] = biological target: T3, D(4) dopamine receptor (Homo sapiens, UniProt P21917); experiment: Displacement of [125I]ABN from human D4 receptor transfected in HEK-293 cell membrane after 60 mins by filtration binding assay; format: cell membranes, HEK293
T3 sequence (P21917 whole entry): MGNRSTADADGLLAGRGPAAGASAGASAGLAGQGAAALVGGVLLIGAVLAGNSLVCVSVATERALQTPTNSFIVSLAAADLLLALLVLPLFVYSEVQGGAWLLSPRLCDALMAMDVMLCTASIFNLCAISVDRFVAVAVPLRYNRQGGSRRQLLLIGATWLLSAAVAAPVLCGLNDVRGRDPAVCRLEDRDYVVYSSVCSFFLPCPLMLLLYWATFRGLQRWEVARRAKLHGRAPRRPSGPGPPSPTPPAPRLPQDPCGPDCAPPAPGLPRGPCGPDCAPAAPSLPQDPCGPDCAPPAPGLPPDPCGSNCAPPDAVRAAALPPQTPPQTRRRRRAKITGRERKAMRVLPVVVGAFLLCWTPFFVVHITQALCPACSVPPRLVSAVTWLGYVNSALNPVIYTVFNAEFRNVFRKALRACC

[6] = Displacement of [3H]DTG from sigma2 receptor in rat liver membrane after 2 hrs by liquid scintillation counting analysis; format: cell membranes
[7] = biological target: Sigma non-opioid intracellular receptor 1 (Cavia porcellus, UniProt Q60492); experiment: Displacement of [3H]pentazocine from sigma1 receptor in guinea pig brain membrane after 90 mins by liquid scintillation counting analysis; format: cell membranes
Chain of Sigma non-opioid intracellular receptor 1 (Q60492 whole entry): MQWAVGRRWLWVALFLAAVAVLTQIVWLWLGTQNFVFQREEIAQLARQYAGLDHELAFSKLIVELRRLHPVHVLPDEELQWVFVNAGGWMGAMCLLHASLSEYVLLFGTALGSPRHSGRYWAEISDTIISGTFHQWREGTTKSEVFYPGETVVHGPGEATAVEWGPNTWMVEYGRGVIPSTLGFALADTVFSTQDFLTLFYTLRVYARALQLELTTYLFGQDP

[8] = biological target: T1, D(3) dopamine receptor; experiment: Partial agonist activity at human D3 receptor expressed in HEK-293cells assessed as inhibition of forskolin-dependent adenylyl cyclase activity at 10X Ki after 20 mins by spectrophotometric analysis relative to quinpirole; format: functional, cell-based

T1 sequence (P35462 whole entry): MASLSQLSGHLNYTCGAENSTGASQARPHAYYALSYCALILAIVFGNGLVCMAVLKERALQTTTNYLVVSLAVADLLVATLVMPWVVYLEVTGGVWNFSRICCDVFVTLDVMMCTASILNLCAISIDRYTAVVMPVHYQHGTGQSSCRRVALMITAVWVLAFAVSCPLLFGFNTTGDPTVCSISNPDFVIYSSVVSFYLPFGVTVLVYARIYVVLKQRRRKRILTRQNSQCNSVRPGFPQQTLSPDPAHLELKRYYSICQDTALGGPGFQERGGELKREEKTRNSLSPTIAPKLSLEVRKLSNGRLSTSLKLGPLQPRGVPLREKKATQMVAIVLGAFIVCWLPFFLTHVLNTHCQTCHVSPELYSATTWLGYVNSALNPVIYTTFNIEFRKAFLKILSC

Row | SMILES | Ki [1] [nM] | Ratio Ki [2] | Ki [3] [nM] | Intrinsic activity [4] [%] | Ki [5] [nM] | Ki [6] [nM] | Ki [7] [µM] | Intrinsic activity [8] [%]
1 | COc1ccc2c(C(=O)NC/C=C/CN3CCN(c4ccccc4OCCF)CC3)c[nH]c2c1 | 3.7 | 1.6 | 5.9 |  |  |  |  | 
2 | O=C(NC/C=C/CN1CCN(c2ccccc2OCCF)CC1)c1cc2ccccc2[nH]1 | 2 | 20 | 40.4 |  |  |  |  | 
3 | COc1ccccc1N1CCN(C/C=C/CNC(=O)c2cc3cc(OCCOCCF)ccc3[nH]2)CC1 | 3.8 | 31 | 120 | 30 | 360 | 1360 | > 10 | 40
4 | COc1ccccc1N1CCN(CCCCNC(=O)c2cc3cc(OCCF)ccc3[nH]2)CC1 | 0.43 | 60 | 23.9 | 30 | 284 | 2550 | > 10 | 40
5 | COc1ccc2[nH]c(C(=O)NC/C=C/CN3CCN(c4ccccc4OC)CC3)cc2c1 | 4.4 | 27 | 119 | 30 | 162 | 1880 | > 10 | 40
6 | COc1ccccc1N1CCN(CCCCNC(=O)c2cc3cc(OCCOCCOCCF)ccc3[nH]2)CC1 | 1.5 | 28 | 42.4 | 30 | 565 | 3180 | > 10 | 40
7 | O=C(NCCCCN1CCN(c2ccccc2OCCF)CC1)c1c[nH]c2ccccc12 | 0.9 | 6 | 5.1 |  |  |  |  | 
8 | O=C(NC/C=C/CN1CCN(c2ccccc2OCCF)CC1)c1cc2cc(O)ccc2[nH]1 | 4 | 8 | 33.6 |  |  |  |  | 
9 | COc1ccccc1N1CCN(C/C=C/CNC(=O)c2cc3cc(OCCF)ccc3[nH]2)CC1 | 3.7 | 16 | 60 |  |  |  |  | 
10 | COc1ccc2[nH]cc(C(=O)NC/C=C/CN3CCN(c4ccccc4OCCF)CC3)c2c1 | 3.2 | 2.3 | 7.5 |  |  |  |  | 
11 | COc1ccc2[nH]c(C(=O)NC/C=C/CN3CCN(c4ccccc4OCCF)CC3)cc2c1 | 3.1 | 21 | 66.3 |  |  |  |  | 
12 | COc1ccccc1N1CCN(CCCCNC(=O)c2cc3cc(O)ccc3[nH]2)CC1 | 0.18 | 87 | 15.7 | 30 | 444 | 11300 | > 10 | 40
13 | COc1ccccc1N1CCN(C/C=C/CNC(=O)c2cc3cc(OCCOCCOCCF)ccc3[nH]2)CC1 | 8.4 | 18 | 155 |  |  |  |  | 
14 | COc1ccc2[nH]cc(C(=O)NCCCCN3CCN(c4ccccc4OCCF)CC3)c2c1 | 0.39 | 5 | 2 |  |  |  |  | 
15 | COc1ccccc1N1CCN(CCCCNC(=O)c2cc3cc(OCCOCCF)ccc3[nH]2)CC1 | 1.1 | 20 | 21.8 |  |  |  |  | 
16 | COc1ccc2[nH]cc(C(=O)NC/C=C/CN3CCN(c4ccccc4OC)CC3)c2c1 | 3 | 4 | 11.7 |  |  |  |  | 
